Test results as given in patent publication US20130178453A1, “Cannabinoid Agonists” (priority 2010, published 2013).
Read-outs that look alike come from different tables or passages of the source.

Tests used:
hCB2 [1] = biological target: T1, hCB2 (Homo sapiens, UniProt P34972); test: hCB2 radioligand binding assay ([3H]-CP 55,940 displacement); settings: HEK membranes
Protocol: (§1) cDNA expression clones for human CB 1 (hCB1, Genbank Accession No. AY225225) and human CB2 (hCB2, Genbank Accession No. AY242132) expressed in vector pcDNA3.1+ were purchased from UMR cDNA Resource Center, Rolla, Mo. (Clone ID CNR01L000 for hCB1; CNR0200000 for hCB2).
(§2) Membranes were isolated from transfected cells as follows. Monolayers of cultured cells were washed twice with phosphate-buffered saline (PBS). […] Homogenates were centrifuged 10 minutes at 1000×g at 4° C. The supernatant was collected and was centrifuged for 1 hour at 40,000×g. The supernatant was then decanted and the resulting pellet was re-suspended in 20 mM HEPES, pH 7.4, 5 mM MgCl2, 1 mM EDTA, 10% sucrose with complete cocktail protease inhibitors. Protein concentration of membrane suspensions were measured by Bradford Protein Assay using bovine serum albumin as the standard (BioRad catalog #500-0006). Protein concentrations of membrane suspensions were adjusted with the final buffer in the range of 5 to 10 mg/mL and were stored at −80° C. until further use.
A rapid filtration technique using Millipore FB filter plates (Catalog #MADVNOB) and filtration apparatus (Millipore system Catalog MAVM0960R) with vacuum aspiration was used to harvest and rinse labeled membranes (8 times with 0.2 mL of chilled binding buffer). […] Binding data were analyzed using GraphPad Prism (GraphPad Software, Inc. San Diego, Calif.).

hCB1 [2] = biological target: T2, hCB1 (Homo sapiens, UniProt P21554); test: hCB1 cAMP agonist assay (HEK-293 cells); format: cell-based; settings: for hCB1 EC50 (cAMP ag, nM, HEK (96-well)): cAMP agonist
hCB2 [3] = biological target: T1, hCB2; test: hCB2 cAMP agonist assay (HEK-293 cells); format: cell-based
Protocol: as §1
cAMP assays were performed in HEK-293 cells stably expressing human CB 1 or CB2 receptors. […] Cells suspensions were centrifuged and the cells were washed once with PBS, were centrifuged again, and the cells were resuspended in HBSS (Hank's Balanced Salt Solution, Cellgro, Cat #21-022-CV) solution containing 10 mM HEPES and 0.1% fatty acid free BSA (Sigma, Cat #A0281). Cell suspensions were prepared at 1,500,000 cells per mL. Stock solutions of test substances (10 mM) in DMSO were diluted to 1 mM using 30% DMSO as diluent. Test substances of solutions (1 mM) were further diluted down to 3× of final assay concentrations in the above HBSS buffer containing 0.1% BSA in the presence of 90 uM forskolin (Sigma Cat#F6886). To perform the assay, 20 μL of cell suspension (1,500,000 cells/mL) were added to each well in 96 well plate and treated with 10 μL test substance solution diluted as described above. Cells and compounds were incubated at 37° C. for 30 minutes. Cells were lysed and cAMP concentration was measured using DiscoveRx-XS+ cAMP assay kit (DiscoveRx Corporation Ltd., Fremont, Calif., USA, Cat #90-0075-03), following the manufacturer's protocol. GraphPad Prism software was used to calculate EC50 values using sigmoidal dose response curve fitting. The maximal amount of cAMP produced by forskolin was defined as 100%.

hCB1 [4] = biological target: T2, hCB1; test: hCB1 radioligand binding assay ([3H]-CP 55,940 displacement); settings: HEK membranes
Source text: as §1
Stable, HEK-293-derived cell lines that recombinantly express hCB1 or hCB2 were established. In brief, the clone hCB1 (CNR1L) or hCB2 (CNR2) was transfected into human embryonic kidney cells (HEK-293) using Lipofectamine 2000 (Gibco, Cat#11668-019) according to the manufacturer's protocol. Transfected clones were isolated by single colony purification and clones were screened for receptor expression using a whole cell, ^3H—CP 55,940 radioligand binding assay. HEK-293 stable cells were maintained in Dulbecco's modified Eagles medium (DMEM) containing 10% fetal bovine serum, 2 mM L-glutamine and 0.5 mg/mL G-418.
Membranes were isolated from transfected cells as follows. Monolayers of cultured cells were washed twice with phosphate-buffered saline (PBS). Cells were scraped into 20 mM HEPES, pH 7.4, 10 mM EDTA containing complete cocktail protease inhibitors (Roche, Catalog #11 697 498 001), and were homogenized by an electric-powered mechanical probe homogenizer (Omni GLH; probe G7-195S) for 40 seconds at 7000 rpm. Homogenates were centrifuged 10 minutes at 1000×g at 4° C. The supernatant was collected and was centrifuged for 1 hour at 40,000×g. The supernatant was then decanted and the resulting pellet was re-suspended in 20 mM HEPES, pH 7.4, 5 mM MgCl2, 1 mM EDTA, 10% sucrose with complete cocktail protease inhibitors. Protein concentration of membrane suspensions were measured by Bradford Protein Assay using bovine serum albumin as the standard (BioRad catalog #500-0006). Protein concentrations of membrane suspensions were adjusted with the final buffer in the range of 5 to 10 mg/mL and were stored at −80° C. until further use.
Radioligand binding assays were performed by incubating membranes (2-10 μg protein) prepared from HEK-293 cells expressing recombinant human cannabinoid receptors, CB 1 or CB2, at room temperature with 0.5 nM cannabinoid receptor agonist, [^3H]-CP 55,940 (Perkin Elmer, catalog #NET 1051) in 0.2 mL of binding buffer (50 mM Tris-HCl, pH 7.5, 5 mM MgCl2, 2.5 mM EDTA) and 0.1% fatty acid free bovine serum albumin (Sigma Cat. #A0821) for 90 minutes. A rapid filtration technique using Millipore FB filter plates (Catalog #MADVNOB) and filtration apparatus (Millipore system Catalog MAVM0960R) with vacuum aspiration was used to harvest and rinse labeled membranes (8 times with 0.2 mL of chilled binding buffer). The radioactivity bound to the filters was counted with 0.05 mL of liquid scintillant (UltraGold MV, PerkinElmer catalog #6013159) in a scintillation counter (Perkin Elmer Microbeta instrument). Nonspecific binding was determined in the presence of unlabeled 1 μM CP 55,940 (Sigma Aldrich, catalog #C1112). Binding data were analyzed using GraphPad Prism (GraphPad Software, Inc. San Diego, Calif.).

hCB2 [5] = biological target: T1, hCB2; test: hCB2 GTPγS agonist assay (HEK-293 membranes); format: biochemical
Protocol: as §1, §2
^35S GTPγS binding assays were performed by incubating recombinant cell membranes prepared above (5 μg) in the presence of scintillation proximity assay beads (SPA beads, Catalog #RPNQ0252 GE Healthcare, Buckinghamshire, England) in GTPγS binding buffer [50 mM HEPES (pH 7.4), 100 mM NaCl, 5 mM MgCl2, 0.001% saponin (Sigma catalog #S4521)] supplemented with 20 uM GDP (Sigma catalog #G7127) in the presence or absence of test compound. The reaction was carried out in 96-well microplates with 0.1 nM [^35S]GTPγS (specific activity=1250 Ci/mmol; Perkin Elmer catalog #NEG030X250UC) in a final volume of 100 μL. After a 90 min room temperature incubation, the reaction was analyzed using a scintillation counter (Perkin Elmer Microbeta instrument). Binding data were analyzed using GraphPad Prism.

[6] = cAMP agonist, HEK, 96-well, read-out: hCB2 EC50 (cAMP ag, nM, HEK (96-well))
[7] = GTPγS agonist, HEK membranes, read-out: hCB2 EC50 (GTPyS ag, nM, HEK)
[8] = read-out: hCB2 IC50 (CP displ, nM, HEK)
[9] = read-out: hCB1 IC50 (CP displ, nM, HEK)

T1 sequence (P34972 whole entry): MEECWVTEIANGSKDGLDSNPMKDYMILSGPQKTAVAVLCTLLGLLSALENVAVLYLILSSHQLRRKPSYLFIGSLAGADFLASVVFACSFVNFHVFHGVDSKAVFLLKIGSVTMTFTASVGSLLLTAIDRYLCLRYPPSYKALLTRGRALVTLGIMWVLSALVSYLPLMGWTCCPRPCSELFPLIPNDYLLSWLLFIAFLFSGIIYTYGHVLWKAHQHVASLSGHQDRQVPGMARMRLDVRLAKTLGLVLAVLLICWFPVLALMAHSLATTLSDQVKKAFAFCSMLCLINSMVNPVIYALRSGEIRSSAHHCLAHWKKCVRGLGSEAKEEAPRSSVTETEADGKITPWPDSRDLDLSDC
T2 sequence (P21554 whole entry): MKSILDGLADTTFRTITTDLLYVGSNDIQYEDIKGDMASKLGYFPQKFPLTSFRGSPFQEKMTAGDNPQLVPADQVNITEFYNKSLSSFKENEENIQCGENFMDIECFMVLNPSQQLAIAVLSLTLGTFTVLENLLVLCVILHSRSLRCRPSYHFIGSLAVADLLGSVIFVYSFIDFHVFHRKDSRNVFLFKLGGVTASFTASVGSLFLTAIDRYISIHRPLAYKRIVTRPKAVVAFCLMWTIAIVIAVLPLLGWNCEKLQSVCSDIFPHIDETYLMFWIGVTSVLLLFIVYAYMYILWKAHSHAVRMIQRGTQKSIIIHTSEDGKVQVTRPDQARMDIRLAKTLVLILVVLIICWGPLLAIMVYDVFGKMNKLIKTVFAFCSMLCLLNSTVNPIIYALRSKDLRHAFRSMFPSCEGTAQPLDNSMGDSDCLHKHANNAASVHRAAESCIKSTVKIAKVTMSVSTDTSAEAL

SMILES	IC50 (hCB2 [1]; hCB2 IC50 (CP displ, nM, HEK)) [nM]	hCB1 EC50 (cAMP ag, nM, HEK (96-well)) (hCB1 [2])	EC50 (hCB2 [3]; [6]) [nM]	IC50 (hCB1 [4]; hCB1 IC50 (CP displ, nM, HEK)) [nM]	EC50 (hCB2 [5]; [7]) [nM]	IC50 (hCB2 [1]; [8]) [nM]	IC50 (hCB1 [4]; [9]) [nM]	EC50 (hCB2 [5]) [nM]	EC50 (hCB1 [2]) [nM]	EC50 (hCB2 [3]) [nM]
CCCn1c(C(=O)c2c(C)[nH]c3ccccc23)cc2ccsc21 [Compound I-51]	100 to 1000	NS (“Not Significant,” which means less than 30% agonist activity when compared to the positive control)	100 to 1000	> 10000	–	–	–	–	–	–
CCCn1c(C(=O)c2c(C)n(C)c3ccccc23)cc2ccsc21 [Compound I-53]	100 to 1000	NS (“Not Significant,” which means less than 30% agonist activity when compared to the positive control)	100 to 1000	> 10000	100 to 1000	–	–	–	–	–
CCn1c(C(=O)c2c(C)[nH]c3ccccc23)cc2ccsc21 [Compound I-38]	–	NS (“Not Significant,” which means less than 30% agonist activity when compared to the positive control)	–	–	–	1000 to 10000	> 10000	–	–	–
CCn1c(C(=O)c2c[nH]c3ccncc23)cc2ccsc21 [Compound I-39]	–	NS (“Not Significant,” which means less than 30% agonist activity when compared to the positive control)	–	–	–	> 10000	> 10000	–	–	–
CCOC(=O)CCn1c(C)c(C(=O)c2cc3ccsc3n2CC)c2ccccc21 [Compound I-26]	100 to 1000	NS (“Not Significant,” which means less than 30% agonist activity when compared to the positive control)	< 100	> 10000	–	–	–	–	–	–
C=CCn1cc(C(=O)c2cc3ccsc3n2CC)c2cnccc21 [Compound I-21]	100 to 1000	–	–	> 10000	–	–	–	100 to 1000	100 to 1000	1000 to 10000
CCCn1c(C)c(C(=O)c2cc3scnc3[nH]2)c2ccccc21 [Compound I-30]	1000 to 10000	NS (“Not Significant,” which means less than 30% agonist activity when compared to the positive control)	–	> 10000	–	–	–	–	–	–
CCCn1c(C)c(C(=O)c2cc3cc(Cl)sc3[nH]2)c2c1CCCC2 [Compound I-76]	100 to 1000	NS (“Not Significant,” which means less than 30% agonist activity when compared to the positive control)	100 to 1000	> 10000	100 to 1000	–	–	–	–	–
CCCn1c(C(=O)c2c(C)[nH]c3ccc(C)cc23)cc2ccsc21 [Compound I-68]	1000 to 10000	NS (“Not Significant,” which means less than 30% agonist activity when compared to the positive control)	–	> 10000	–	–	–	–	–	–
CCn1c(C(=O)c2c(C)n(CC3CCOCC3)c3ccccc23)cc2ccsc21 [Compound I-17]	< 100	–	–	100 to 1000	–	–	–	< 100	100 to 1000	< 100
CCCn1c(C)c(C(=O)c2cc3ccsc3n2CCC)c2cc(C)ccc21 [Compound I-69]	< 100	NS (“Not Significant,” which means less than 30% agonist activity when compared to the positive control)	–	1000 to 10000	–	–	–	< 100	–	< 100
CCCn1c(C)c(C(=O)c2cc3sccc3[nH]2)c2ccccc21 [Compound I-81]	100 to 1000	NS (“Not Significant,” which means less than 30% agonist activity when compared to the positive control)	–	1000 to 10000	–	–	–	100 to 1000	–	100 to 1000
CCCn1c(C(=O)c2c(C)n(S(=O)(=O)CC)c3ccccc23)cc2ccsc21 [Compound I-67]	100 to 1000	NS (“Not Significant,” which means less than 30% agonist activity when compared to the positive control)	100 to 1000	> 10000	–	–	–	–	–	–
CCCn1c(C)c(C(=O)c2cc3ccsc3n2CCC)c2c1CCC(C)(C)C2 [Compound I-35]	< 100	–	< 100	100 to 1000	< 100	–	–	–	–	–
CCCn1c(C)c(C(=O)c2cc3ccsc3n2CC)c2c1CCC(C)(C)C2 [Compound I-65]	< 100	–	< 100	1000 to 10000	< 100	–	–	–	–	–
CCn1c(C(=O)c2c[nH]c3cnccc23)cc2ccsc21 [Compound I-40]	–	NS (“Not Significant,” which means less than 30% agonist activity when compared to the positive control)	–	–	–	> 10000	> 10000	–	–	–
CCCn1c(C(=O)c2c[nH]c3ccncc23)cc2ccsc21 [Compound I-44]	–	NS (“Not Significant,” which means less than 30% agonist activity when compared to the positive control)	–	–	–	> 10000	> 10000	–	–	–
CCCn1c(C)c(C(=O)c2cc3sccc3s2)c2ccccc21 [Compound I-20]	1000 to 10000	–	–	1000 to 10000	–	–	–	100 to 1000	–	100 to 1000
CCCn1c(C)c(C(=O)c2cc3ccsc3n2C)c2ccccc21 [Compound I-55]	100 to 1000	–	–	> 10000	–	–	–	100 to 1000	–	< 100
CCCn1c(C)c(C(=O)c2c(C)[nH]c3sccc23)c2ccccc21 [Compound I-6]	> 10000	NS (“Not Significant,” which means less than 30% agonist activity when compared to the positive control)	–	> 10000	–	–	–	–	–	–
